In data set [1] the test system is BALB/3T3. Kind of data set: Cytotoxicity against mouse BALB/3T3 cells assessed as reduction in cell viability at 50 ug/ml measured after 72 hrs. The class given is toxicity, cell-based. The conditions noted are these: balb/3t3, 72 h, dose 50 µg/ml.
Data set [2] deals with BALB/3T3. Kind of data set: Cytotoxicity against mouse BALB/3T3 cells assessed as reduction in cell viability at 10 to 50 ug/ml measured after 72 hrs. The class given is toxicity, cell-based. The conditions noted are these: balb/3t3, 72 h, dose 10-50 µg/ml.
Data set [3] relates to B16-F10. Kind of data set: Antiproliferative activity against mouse B16-F10 cells assessed as reduction in cell number at 10 to 50 ug/ml measured after 72 hrs. The format is functional, cell-based. The conditions noted are these: dose 10-50 µg/ml.
The test system of data set [4] is B16-F10. Kind of data set: Antiproliferative activity against mouse B16-F10 cells assessed as reduction in cell viability at 10 to 50 ug/ml measured after 72 hrs. The format is functional, cell-based. The conditions noted are these: dose 10-50 µg/ml.
Data set [5] has as its system BALB/3T3. Nature of the data set: Cytotoxicity against mouse BALB/3T3 cells assessed as reduction in cell viability at 10 to 50 ug/ml measured after 72 hrs by neutral red staining based analysis. The class given is toxicity. To be noted: balb/3t3, 72 h, dose 10-50 µg/ml.
For data set [6], the system named is BALB/3T3. Nature of the data set: Cytotoxicity against mouse BALB/3T3 cells assessed as reduction in cell viability at 10 to 50 ug/ml measured after 72 hrs by crystal violet staining based analysis. The class given is toxicity. The conditions noted are these: balb/3t3, 72 h, dose 10-50 µg/ml.
The subject of data set [7] is B16-F10. Kind of data set: Antiproliferative activity against mouse B16-F10 cells assessed as reduction in cell number at 50 ug/ml measured after 72 hrs. The format is functional, cell-based. To be noted: dose 50.0 µg/ml.
Data set [8] deals with B16-F10. Kind of data set: Antiproliferative activity against mouse B16-F10 cells assessed as reduction in cell viability at 50 ug/ml measured after 72 hrs by neutral red uptake assay. The format is functional, cell-based. To be noted: dose 50.0 µg/ml.

Calls of active or inactive are those of the source. The calls are words filed in the database; no cut-off is given here.

As to `O=C(O)C(O)c1ccc([Se]c2ccccc2)cc1` (centres undefined), the Activity result with BALB/3T3 [1] and in the data set with BALB/3T3 [2] was “Non-Toxic” in each case. Also, in the data set with B16-F10 [3], the outcome was Active.

In the case of `CCCC[Se]c1ccc(C(O)C(=O)OC)cc1` (centres undefined), in the data set with BALB/3T3 [2], the Activity entry is given as “Non-Toxic”. In addition, the outcome in the data set on B16-F10 [4] was inactive.

Take `COC(=O)C(O)c1ccc([Se]c2ccccc2)cc1` (centres undefined): the Activity entry with BALB/3T3 [5] and in the data set on BALB/3T3 [6] was “Toxic” each time.

For `OCC(O)c1ccc([Se]c2ccccc2)cc1` (centres undefined), the Activity result with BALB/3T3 [5] and with BALB/3T3 [6] was “Toxic” throughout.

As to `CCCC[Se]c1ccc(C(O)C(=O)O)cc1` (centres undefined), the outcome in the data set with B16-F10 [7] and in the data set on B16-F10 [8] was Active. Further, the Activity result with BALB/3T3 [2] is “Non-Toxic”.

`COC(=O)C(OC(C)=O)c1ccc([Se]c2ccccc2)cc1` (centres undefined): the Activity entry in the data set with BALB/3T3 [5] and in the data set on BALB/3T3 [6] was “Toxic” throughout.

Source of the values: ChEMBL document CHEMBL5584253, “Polyfunctionalized organoselenides: New synthetic approach from selenium-containing cyanohydrins and anti-melanoma activity” (Bioorg Med Chem Lett, 2024).
